Patent US7745410B2, “Bladder tumor-targeting peptide and use thereof” (Kyungpook National University Industry-Academica …, priority 2006, dated 2010)
Positions of bridges follow the written chain, without caps; N, C: chain ends. No end group written: not given here. *: point of attachment. FITC = O=C1OC2(c3ccc(O)cc3Oc3cc(O)ccc32)c2ccc(NC(=S)*)cc21

How the values were obtained:
[1] = system: cells separated from the urine of a patient suffering from bladder tumor; assay: Binding of FITC-peptide to cells collected from urine (fluorescence microscopy); type: cell-based, human; conditions: 4° C., 1 hour; FIG. 7
Protocol: FIG. 7 is a set of fluorescence microscopic photographs showing the binding specificity of the target peptide having FITC attached thereto to cells separated from the urine of a patient suffering from bladder tumor, wherein the green fluorescence represents the peptide according to the present invention, and the blue fluorescence represents the nucleus stained with DAPI;
Urine of a patient that was in the hospital for surgical operation on the bladder tumor was centrifuged with 1500 rpm at 4° C. for 10 minutes to collect cells. As a control, bladder cells, collected from the urine of a normal human in the same manner as described above, were used. Next, the collected cells were allowed to react with the FITC-peptide 1 described in Example <2-2> and the control peptide (SEQ ID NO: 10) at 4° C. for 1 hour. After staining the cells with DAPI, the cells were transferred onto a slide and observed with a fluorescence microscope. Meanwhile, the cells were stained with the PAP staining method (Papanicolau and Marshall, Science 101:519, 1945), currently used as a method for the diagnosis of bladder tumor, to observe the presence of tumor cells.

[2] = system: human bladder tumor tissue; assay: Binding of FITC-peptide to frozen tissue sections (fluorescence microscopy); conditions: 10 μM peptide, 4° C., 1 hour, FIG. 4
Protocol: FIG. 4 is a set of photographs showing the binding specificity to the frozen section of human bladder tumor cells of the peptide according to the present invention having FITC attached thereto, wherein the green fluorescence represents the peptide according to the present invention, and the blue fluorescence represents the nucleus stained with DAPI;
Next, 10 μM of the peptide, FITC-CSNRDARRC, was allowed to react with the tissues at 4° C. for 1 hour. As a control, a peptide (SEQ ID NO: 10; CDASRRNRC), which had the same number of amino acids as the peptide according to the present invention but included a randomly modified amino acid sequence between both terminal cystein residues, was used. After the reaction of each peptide, a mounting solution (molecular Probe) containing a nucleus staining reagent, DAPI (4′,6-diamidino-2-phenylindole), was treated on the surface of the slide according to the method known to one skilled in the art. Then, the slide was observed by using a fluorescence microscope.

[3] = system: BBN-induced bladder tumor; assay: In vivo micro PET imaging after intravenous injection of radiolabeled peptides; set-up: species or system rat; conditions: 14 hours after intravenous injection; tumor-bearing F344 rats; 380 μCi peptide 1, 313 μCi control; FIG. 8
Protocol: For radioiodination, each of CSNRDARRC peptide (SEQ ID NO: 1) and CDASRRNRC control peptide (SEQ ID NO: 10) was added with a tyrosine residue at the N-terminus during synthesis. […] The synthetic peptide was labeled with [131I]NaI by using Iodo-bead (Pierce Biochemical Co., Rockford, Ill.). The bead was washed with phosphate-buffered saline (PBS), pH 7.2 and dried on filter paper for 5 min. The washed bead was added to a solution of [131I]NaI (100 MBq) in PBS. After shaking at RT for 5 min, the peptide solution (14 mg in 20 mL distilled water) was added to the [131I]NaI solution containing Iodo-bead. [131I]NaI (T1/2=[…]) was purchased from Korea Institute of Radiology and Science (KIRAMS; Seoul, Korea). The reaction was allowed to proceed for 15 min at RT by gentle shaking and then stopped by the removal of the bead out of the reaction tube. The 131I-incorporation yield measured by radio-TLC was 47% (silica, 10% ammonium acetate:methanol=30:70). […] The radiochemical purity of final solution was measured to be over 81.2%. […]
In contrast, uptake of the control peptide (313 μCi) was minimal (FIG. 8 D-F). These findings indicate that the radioactivity shown in rat bladder is not a non-specific one from urinary excretion of the radiolabeled peptides but a specific one from the uptake of the peptide by bladder tumor tissues.

bladder tumor cells = assay: In vivo targeting after tail vein injection (BBN-induced bladder tumor); set-up: species or system rat; conditions: final 50 μM in blood
From the text: FIG. 6 is a set of photographs showing the in vivo targeting capability of the peptide according to the present invention, after injecting the peptide having FITC attached thereto into the tail venous vessel of a mouse in which a bladder tumor is induced, wherein the green fluorescence represents the peptide according to the present invention, and the red fluorescence represents an epithelial cell stained with cytokeratin;
(§1) First, 4 week-aged F344 rats (n=10) (Hyochang Science) were fed with water containing 0.05% of N-butyl-N-4-hydroxybutylnitrosoamine (BBN) for 8 weeks to induce a bladder tumor.
(§2) The FITC-peptide 1 was injected into the mouse, in which a bladder tumor induced, and into the normal mouse via the tail venous to a final concentration of 50 μM in the blood, followed by circulation for 2 hours. Additionally, to determine whether the peptide according to the present invention specifically targets the bladder tumor in vivo, a malignant melanoma was induced in a mouse (Hyochang Science), and the peptide according to the present invention was injected into the mouse in the same manner as described above. Then, the bladder was removed from each mouse to prepare a frozen section, which, in turn, was stained by H&E staining or cytokeratin staining. Each section was observed by using a fluorescence microscope.

[4] = system: malignant melanoma tissue; assay: In vivo targeting after tail vein injection in mouse with induced malignant melanoma; conditions: final 50 μM in blood, 2 hours
Protocol: k: microscopic photograph of malignant melanoma of mouse injected with the peptide according to the present invention and stained with H & E; and
l: fluorescence microscopic photograph of cancer tissue of mouse injected with the peptide according to the present invention and stained with DAPI; and
as §2

bladder tumor tissue = assay: In vivo targeting after injection into the bladder via the urethra (BBN-induced bladder tumor); set-up: species or system rat; conditions: 50 μM injected into bladder via urethra, 30 minutes, FIG. 5
From the text: FIG. 5 is a set of photographs showing the binding specificity to bladder tumor tissue of the peptide according to the present invention having FITC attached thereto, after injecting the peptide into the mouse bladder in which a bladder tumor is induced, wherein the green fluorescence represents the peptide according to the present invention, and the red fluorescence represents an epithelial cell stained with cytokeratin;
as §1
50 μM of FITC-CSNRDARRC peptide described in Example <2-2> was injected into the bladder of each of the mouse, in which a bladder tumor was induced, and a normal mouse via the urethra, followed by reaction for 30 minutes. Then, the bladder was removed from each mouse and a frozen section was provided. The frozen section was stained by H&E staining according to a method known to one skilled in the art. […] Then, 1:200 dilution of a secondary antibody, to which a red fluorescence material (Alexa red) was bonded, was allowed to react with the cells at room temperature for 1 hour, followed by treatment with a mounting solution containing DAPI. Next, the cells were observed by using a fluorescence microscope.

[5] = system: bladder tumor cells separated from the human bladder tissue; assay: Binding of phage clones to bladder tumor cells and normal bladder cells from patient tissue (phage titer); type: cell-based; conditions: phage clones of Example 1
Protocol: FIG. 3 is a graph showing the binding specificity of six positive phage clones to the bladder tumor cells separated from the human bladder tissue and to the normal bladder cells;
Bladder tumor cells were separated from fresh bladder tumor tissue obtained from six patients with a bladder tumor by transurethral resection of bladder tumor, according to a known method. The cells were measured for the specific binding of the six individual phage clones (SEQ ID NO: 1 to SEQ ID NO: 6) described in Example 1 to the tumor cells and compared their binding to that of the normal cells. First, bladder tumor tissue and normal bladder tissue were pulverized finely to provide cell suspensions, and the six phages (5×10^9 pfu) were allowed react with the cells at 4° C. for 2 hours. A non-recombinant phage, T7 415-1b phage, was used as a control phage. Next, tumor cells and the normal epithelial cells were separated from the cell suspensions formed from the tumor tissue and the normal tissue by using magnetic beads coated with epithelial cell antibodies, in the same manner as described in Example <1-2>. Then, phages were detected from the cells and measured for the titer of phages, in the same manner as described in Example <1-2>.

Row | Substance | fluorescence/binding in urine cells of the patient suffering from bladder tumor [1] | binding to bladder tumor tissue [2] | uptake in bladder on micro PET images [3] | fluorescence in control cells (urine of a normal human) [1] | detection of peptide in lung tissue of a normal mouse (bladder tumor cells; 2 hours) | detection of peptide in normal bladder cells (bladder tumor cells; 2 hours, normal animal) | targeting of bladder tumor cells after injection into the blood (bladder tumor cells; circulation 2 hours, FIG. 6) | detection of peptide in malignant melanoma tissue [4] | fluorescence in epithelial cells at the site where a bladder tumor was induced (bladder tumor tissue) | fluorescence in epithelial cells covering the normal bladder (bladder tumor tissue; normal animal) | binding capability among the six phage clones [5]
1 | CDASRRNRC (YCDASRRNRC; disulfide 2-10; numbers in words are those of the source; also: 124I radiolabel) [control peptide, radioiodinated with added N-terminal tyrosine for PET, reference compound] | could not be bonded | substantially showed no binding | minimal | – | – | – | – | – | – | – | –
2 | FITC-CSNRDARRC ({FITC}-CSNRDARRC; disulfide 1-9) [FITC-peptide 1, peptide 1 with FITC (fluorescein isothiocyanate) linked to its amino terminal] | green fluorescence was observed | bonded specifically | – | fluorescence was not detected | not detected | not detected | targets the bladder tumor cells | not detected | green fluorescence was observed | no fluorescence was observed | –
3 | CSNRDARRC (disulfide 1-9; not fully specified (N-terminus)) [peptide 1] | – | – | – | – | – | – | – | – | – | – | highest binding capability
